According to the supplement of paper PMC11451515:

System: SEM cells
Assay: cell viability relative to DMSO control; higher = less cytotoxic
Conditions: 48 h
Procedure, shortened: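 Viability is a per-plate percentage relative to DMSO wells, with cell-free wells as background. CellTiter-Glo One luminescence was read after 48 h at 37°C on 1536-well plates (5 μl) of NOMO1 or SEM (500 cells/well) or P12-Ichikawa (1000 cells/well) leukemia cells. The cells had been adapted for at least four passages in each medium and pin-dosed with library compounds in DMSO from 47 μM to 0.79 nM in 11 threefold steps.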

[1] = HPLM + 10% dialyzed FBS, 0.000781 µM
[2] = HPLM + 10% dialyzed FBS, 0.00234 µM
[3] = HPLM + 10% dialyzed FBS, 0.00702 µM
[4] = HPLM + 10% dialyzed FBS, 0.0211 µM
[5] = HPLM + 10% dialyzed FBS, 0.0632 µM
[6] = HPLM + 10% dialyzed FBS, 0.19 µM
[7] = HPLM + 10% dialyzed FBS, 0.569 µM
[8] = HPLM + 10% dialyzed FBS, 1.71 µM
[9] = HPLM + 10% dialyzed FBS, 5.12 µM
[10] = HPLM + 10% dialyzed FBS, 15.4 µM
[11] = HPLM + 10% dialyzed FBS, 46.1 µM
[12] = RPMI 5 mM glucose + 10% FBS, 0.000781 µM
[13] = RPMI 5 mM glucose + 10% FBS, 0.00234 µM
[14] = RPMI 5 mM glucose + 10% FBS, 0.00702 µM
[15] = RPMI 5 mM glucose + 10% FBS, 0.0211 µM
[16] = RPMI 5 mM glucose + 10% FBS, 0.0632 µM
[17] = RPMI 5 mM glucose + 10% FBS, 0.19 µM
[18] = RPMI 5 mM glucose + 10% FBS, 0.569 µM
[19] = RPMI 5 mM glucose + 10% FBS, 1.71 µM
[20] = RPMI 5 mM glucose + 10% FBS, 5.12 µM
[21] = RPMI 5 mM glucose + 10% FBS, 15.4 µM
[22] = RPMI 5 mM glucose + 10% FBS, 46.1 µM
[23] = RPMI 5 mM glucose + 10% dialyzed FBS, 0.000781 µM
[24] = RPMI 5 mM glucose + 10% dialyzed FBS, 0.00234 µM
[25] = RPMI 5 mM glucose + 10% dialyzed FBS, 0.00702 µM
[26] = RPMI 5 mM glucose + 10% dialyzed FBS, 0.0211 µM
[27] = RPMI 5 mM glucose + 10% dialyzed FBS, 0.0632 µM
[28] = RPMI 5 mM glucose + 10% dialyzed FBS, 0.19 µM
[29] = RPMI 5 mM glucose + 10% dialyzed FBS, 0.569 µM
[30] = RPMI 5 mM glucose + 10% dialyzed FBS, 1.71 µM
[31] = RPMI 5 mM glucose + 10% dialyzed FBS, 5.12 µM
[32] = RPMI 5 mM glucose + 10% dialyzed FBS, 15.4 µM
[33] = RPMI 5 mM glucose + 10% dialyzed FBS, 46.1 µM

Compound | cell viability [1] | cell viability [2] | cell viability [3] | cell viability [4] | cell viability [5] | cell viability [6] | cell viability [7] | cell viability [8] | cell viability [9] | cell viability [10] | cell viability [11] | cell viability [12] | cell viability [13] | cell viability [14] | cell viability [15] | cell viability [16] | cell viability [17] | cell viability [18] | cell viability [19] | cell viability [20] | cell viability [21] | cell viability [22] | cell viability [23] | cell viability [24] | cell viability [25] | cell viability [26] | cell viability [27] | cell viability [28] | cell viability [29] | cell viability [30] | cell viability [31] | cell viability [32] | cell viability [33]
OC(c1cc(C(F)(F)F)nc2c(C(F)(F)F)cccc12)C1CCCCN1 (stereo not given) | 103% | 115% | 109% | 116% | 117% | 139% | 91.8% | 54.7% | 126% | 132% | 7.71% | 117% | 118% | 131% | 149% | 133% | 138% | 93.9% | 63.4% | 132% | 114% | 9.68% | 117% | 130% | 122% | 136% | 135% | 129% | 81.2% | 47.8% | 137% | 130% | 10.3%
Cc1coc2c1C(=O)C(=O)c1c-2ccc2c(C)cccc12 | – | – | – | – | – | – | – | – | – | – | – | 91.4% | 79.7% | 107% | 12.8% | 91.3% | 80.1% | 90.3% | 78% | 72.8% | 54% | 48.6% | 112% | 117% | 135% | 19.3% | 112% | 115% | 98% | 102% | 106% | 86.4% | 75.3%
CC(C)(C#N)c1cc(Cn2cncn2)cc(C(C)(C)C#N)c1 | 101% | 92.6% | 87.4% | 103% | 111% | 104% | 21.8% | 112% | 116% | 117% | 113% | 123% | 116% | 115% | 102% | 109% | 106% | 21.3% | 122% | 126% | 125% | 111% | – | – | – | – | – | – | – | – | – | – | –
CCN(CC)CCCCNc1ncc2cc(-c3cc(OC)cc(OC)c3)c(NC(=O)NC(C)(C)C)nc2n1 | 89.9% | 104% | 119% | 114% | 86.2% | 98.6% | 105% | 84% | 70.3% | 46.2% | 9.92% | 118% | 113% | 107% | 109% | 100% | 90.7% | 92.1% | 78.8% | 87% | 53.6% | 17% | 112% | 105% | 113% | 106% | 97.7% | 108% | 95.4% | 81% | 76.6% | 44.9% | 14.4%
O=C(Nc1cccc(C(F)(F)F)c1)Nc1cc([S+](=O)([O-])NC2CC2)ccc1-c1ccsc1 | 101% | 108% | 117% | 97.1% | 110% | 118% | 109% | 102% | 113% | 106% | 61.9% | – | – | – | – | – | – | – | – | – | – | – | 101% | 107% | 118% | 105% | 107% | 111% | 104% | 83.4% | 94.9% | 101% | 10.3%
COc1ccc([C@@H]2CC(=O)c3c(O)cc(O[C@@H]4O[C@H](CO[C@@H]5O[C@@H](C)[C@H](O)[C@@H](O)[C@H]5O)[C@@H](O)[C@H](O)[C@H]4O)cc3O2)cc1O | 98.6% | 101% | 119% | 114% | 109% | 120% | 103% | 102% | 112% | 107% | 74% | 117% | 106% | 107% | 102% | 111% | 106% | 115% | 116% | 103% | 111% | 52.7% | 110% | 138% | 108% | 115% | 126% | 114% | 131% | 120% | 119% | 127% | 44%
O=C1NC(=O)/C(=C/c2ccc3nccc(-c4ccncc4)c3c2)S1 | 108% | 104% | 105% | 107% | 95.5% | 74.5% | 43.9% | 49.5% | 19.7% | 13.7% | 1.01% | 115% | 116% | 134% | 116% | 108% | 86.1% | 55.4% | 48.2% | 23.9% | 7.87% | 1.09% | 105% | 103% | 101% | 111% | 96.7% | 67.8% | 46.9% | 43.4% | 24.3% | 12.8% | 0.853%
Clc1ccc(-c2nc3sccn3c2/C=N/OCc2ccc(Cl)c(Cl)c2)cc1 | 127% | 122% | 101% | 119% | 124% | 111% | 115% | 88.5% | 100% | 101% | 117% | – | – | – | – | – | – | – | – | – | – | – | 131% | 122% | 111% | 137% | 120% | 134% | 135% | 104% | 113% | 110% | 115%
